Results taken from ChEMBL document CHEMBL5463729, “Data for DCP probe BAY 1753011” (2023).

Experiments:
Settings in all cases: Compound concentration 10.0 uM
[1] = biological target: Calcitonin receptor (Homo sapiens) (UniProt P30988); assay: Inhibition of Calcitonin at 10 µM in the Eurofins-Panlabs radioligand binding assay (Eurofins_assay_213610)
[2] = biological target: C-C chemokine receptor type 2 (Homo sapiens) (UniProt P41597); assay: Inhibition of Chemokine CCR2B at 10 µM in the Eurofins-Panlabs radioligand binding assay (Eurofins_assay_217550)
[3] = biological target: Vasoactive intestinal polypeptide receptor 1 (Homo sapiens) (UniProt P32241); assay: Inhibition of Vasoactive Intestinal Peptide VIP1 at 10 µM in the Eurofins-Panlabs radioligand binding assay (Eurofins_assay_287010)

Measured: inhibition

Chain of C-C chemokine receptor type 2 (Homo sapiens) (P41597 whole entry, looked up): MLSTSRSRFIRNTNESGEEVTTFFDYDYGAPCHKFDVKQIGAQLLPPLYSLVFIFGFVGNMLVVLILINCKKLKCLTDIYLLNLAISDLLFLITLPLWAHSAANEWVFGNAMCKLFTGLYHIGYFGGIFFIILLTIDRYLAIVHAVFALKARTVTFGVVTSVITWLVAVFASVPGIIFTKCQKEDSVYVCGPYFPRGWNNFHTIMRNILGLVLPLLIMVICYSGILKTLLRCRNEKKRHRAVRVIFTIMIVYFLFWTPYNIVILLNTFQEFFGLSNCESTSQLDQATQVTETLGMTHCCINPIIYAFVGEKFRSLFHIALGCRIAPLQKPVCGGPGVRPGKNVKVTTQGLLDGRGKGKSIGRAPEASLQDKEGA
Chain of Vasoactive intestinal polypeptide receptor 1 (Homo sapiens) (P32241 whole entry): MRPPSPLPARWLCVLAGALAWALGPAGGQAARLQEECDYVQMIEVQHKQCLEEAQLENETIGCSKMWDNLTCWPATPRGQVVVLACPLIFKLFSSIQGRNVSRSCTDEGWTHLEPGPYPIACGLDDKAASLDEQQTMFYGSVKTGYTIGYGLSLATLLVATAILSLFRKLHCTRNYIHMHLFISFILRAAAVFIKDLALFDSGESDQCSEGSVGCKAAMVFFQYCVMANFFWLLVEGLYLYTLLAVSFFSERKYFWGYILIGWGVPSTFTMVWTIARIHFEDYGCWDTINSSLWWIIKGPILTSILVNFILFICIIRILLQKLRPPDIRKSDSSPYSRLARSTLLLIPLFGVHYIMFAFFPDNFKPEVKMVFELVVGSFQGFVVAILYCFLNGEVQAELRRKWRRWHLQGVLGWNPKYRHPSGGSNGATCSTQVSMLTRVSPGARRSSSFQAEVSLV
Chain of Calcitonin receptor (Homo sapiens) (P30988 whole entry): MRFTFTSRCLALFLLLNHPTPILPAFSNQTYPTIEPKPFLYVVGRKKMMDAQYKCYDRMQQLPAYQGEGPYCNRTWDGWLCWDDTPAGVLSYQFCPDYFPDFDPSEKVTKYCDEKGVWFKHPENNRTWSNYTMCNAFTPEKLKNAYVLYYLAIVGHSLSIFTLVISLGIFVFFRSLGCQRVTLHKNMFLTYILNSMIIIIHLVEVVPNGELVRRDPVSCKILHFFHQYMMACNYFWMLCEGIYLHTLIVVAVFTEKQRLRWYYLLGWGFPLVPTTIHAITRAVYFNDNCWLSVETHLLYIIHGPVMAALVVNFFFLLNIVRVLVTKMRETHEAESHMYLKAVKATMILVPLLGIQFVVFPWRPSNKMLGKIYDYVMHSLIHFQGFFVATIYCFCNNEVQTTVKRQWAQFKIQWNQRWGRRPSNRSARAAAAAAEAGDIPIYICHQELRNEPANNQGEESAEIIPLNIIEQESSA

C[C@H](O)c1nc(Cn2nc(-c3ccc(Cl)cc3)n(C[C@H](O)C(F)(F)F)c2=O)nn1-c1cccc(Cl)c1 [PECAVAPTAN]
inactive: [1] -7% | [2] 2% | [3] 10%
